# According to PubChem BioAssay (NCI):
#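 At the GI50, growth is halved. TGI is the concentration that stops growth completely.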
# Columns and labels:
# Assay in all cases: NCI anticancer screen, dose series, 384-well format
# 786-0 renal = test system: 786-0 renal
# A498 renal = test system: A498 renal
# A549 NSCLC = test system: A549 NSCLC
# ACHN renal = test system: ACHN renal
# BT-549 breast = test system: BT-549 breast
# CAKI-1 renal = test system: CAKI-1 renal
# CCRF-CEM leukemia = test system: CCRF-CEM leukemia
# COLO 205 colon = test system: COLO 205 colon
# DU-145 prostate = test system: DU-145 prostate
# EKVX NSCLC = test system: EKVX NSCLC
# HCC-2998 colon = test system: HCC-2998 colon
# HCT-15 colon = test system: HCT-15 colon
# HL-60(TB) leukemia = test system: HL-60(TB) leukemia
# HOP-62 NSCLC = test system: HOP-62 NSCLC
# HOP-92 NSCLC = test system: HOP-92 NSCLC
# HS 578T breast = test system: HS 578T breast
# HT29 colon = test system: HT29 colon
# IGROV1 ovarian = test system: IGROV1 ovarian
# K-562 leukemia = test system: K-562 leukemia
# KM12 colon = test system: KM12 colon
# LOX IMVI melanoma = test system: LOX IMVI melanoma
# M14 melanoma = test system: M14 melanoma
# MALME-3M melanoma = test system: MALME-3M melanoma
# MCF7 breast = test system: MCF7 breast
# MDA-MB-231 breast = test system: MDA-MB-231 breast
# MDA-MB-435 melanoma = test system: MDA-MB-435 melanoma
# MDA-MB-468 breast = test system: MDA-MB-468 breast
# MOLT-4 leukemia = test system: MOLT-4 leukemia
# NCI-H226 lung = test system: NCI-H226 lung
# NCI-H23 lung = test system: NCI-H23 lung
# NCI-H322M lung = test system: NCI-H322M lung
# NCI-H460 NSCLC = test system: NCI-H460 NSCLC
# NCI-H522 lung = test system: NCI-H522 lung
# NCI/ADR-RES ovarian = test system: NCI/ADR-RES ovarian
# OVCAR-3 ovarian = test system: OVCAR-3 ovarian
# OVCAR-4 ovarian = test system: OVCAR-4 ovarian
# OVCAR-5 ovarian = test system: OVCAR-5 ovarian
# OVCAR-8 ovarian = test system: OVCAR-8 ovarian
# PC-3 prostate = test system: PC-3 prostate
# RPMI-8226 leukemia = test system: RPMI-8226 leukemia
# RXF 393 renal = test system: RXF 393 renal
# SF-268 CNS = test system: SF-268 CNS
# SF-295 CNS = test system: SF-295 CNS
# SF-539 CNS = test system: SF-539 CNS
# SK-MEL-28 melanoma = test system: SK-MEL-28 melanoma
# SK-MEL-5 melanoma = test system: SK-MEL-5 melanoma
# SK-OV-3 ovarian = test system: SK-OV-3 ovarian
# SN12C renal = test system: SN12C renal
# SNB-19 CNS = test system: SNB-19 CNS
# SNB-75 CNS = test system: SNB-75 CNS
# SW-620 colon = test system: SW-620 colon
# T-47D breast = test system: T-47D breast
# TK-10 renal = test system: TK-10 renal
# UACC-257 melanoma = test system: UACC-257 melanoma
# UACC-62 melanoma = test system: UACC-62 melanoma
# UO-31 renal = test system: UO-31 renal
structure (smiles),measurement,setting,value
CC1(C)CN(c2cc(C(F)(F)F)cc3cncn23)CCC12NC(=O)NC2=O (configuration not stated),GI50,786-0 renal,35.1 µM
same,TGI,786-0 renal,> 100 µM
same,GI50,A498 renal,26 µM
same,TGI,A498 renal,> 100 µM
same,GI50,A549 NSCLC,35.3 µM
same,TGI,A549 NSCLC,> 100 µM
same,GI50,ACHN renal,38.2 µM
same,TGI,ACHN renal,> 100 µM
same,GI50,BT-549 breast,19.8 µM
same,TGI,BT-549 breast,> 100 µM
same,GI50,CAKI-1 renal,30.6 µM
same,TGI,CAKI-1 renal,> 100 µM
same,GI50,CCRF-CEM leukemia,12 µM
same,TGI,CCRF-CEM leukemia,26.7 µM
same,GI50,COLO 205 colon,68.9 µM
same,TGI,COLO 205 colon,> 100 µM
same,GI50,DU-145 prostate,40 µM
same,TGI,DU-145 prostate,> 100 µM
same,GI50,EKVX NSCLC,15.1 µM
same,TGI,EKVX NSCLC,59.7 µM
same,GI50,HCC-2998 colon,29.4 µM
same,TGI,HCC-2998 colon,73.9 µM
same,GI50,HCT-15 colon,40.6 µM
same,TGI,HCT-15 colon,> 100 µM
same,GI50,HL-60(TB) leukemia,14.5 µM
same,TGI,HL-60(TB) leukemia,27.8 µM
same,GI50,HOP-62 NSCLC,28.3 µM
same,TGI,HOP-62 NSCLC,> 100 µM
same,GI50,HOP-92 NSCLC,26.1 µM
same,TGI,HOP-92 NSCLC,> 100 µM
same,GI50,HS 578T breast,12.9 µM
same,TGI,HS 578T breast,35.6 µM
same,GI50,HT29 colon,46 µM
same,TGI,HT29 colon,> 100 µM
same,GI50,IGROV1 ovarian,27.8 µM
same,TGI,IGROV1 ovarian,75.8 µM
same,GI50,K-562 leukemia,42.6 µM
same,TGI,K-562 leukemia,> 100 µM
same,GI50,KM12 colon,36 µM
same,TGI,KM12 colon,> 100 µM
same,GI50,LOX IMVI melanoma,32.5 µM
same,TGI,LOX IMVI melanoma,> 100 µM
same,GI50,M14 melanoma,48.1 µM
same,TGI,M14 melanoma,> 100 µM
same,GI50,MALME-3M melanoma,28.1 µM
same,TGI,MALME-3M melanoma,88.7 µM
same,GI50,MCF7 breast,26 µM
same,TGI,MCF7 breast,99.6 µM
same,GI50,MDA-MB-231 breast,32.2 µM
same,TGI,MDA-MB-231 breast,> 100 µM
same,GI50,MDA-MB-435 melanoma,62.2 µM
same,TGI,MDA-MB-435 melanoma,> 100 µM
same,GI50,MDA-MB-468 breast,12.5 µM
same,TGI,MDA-MB-468 breast,35.2 µM
same,GI50,MOLT-4 leukemia,12.3 µM
same,TGI,MOLT-4 leukemia,25.1 µM
same,GI50,NCI-H226 lung,26.6 µM
same,TGI,NCI-H226 lung,> 100 µM
same,GI50,NCI-H23 lung,30.7 µM
same,TGI,NCI-H23 lung,> 100 µM
same,GI50,NCI-H322M lung,57.8 µM
same,TGI,NCI-H322M lung,> 100 µM
same,GI50,NCI-H460 NSCLC,38.1 µM
same,TGI,NCI-H460 NSCLC,> 100 µM
same,GI50,NCI-H522 lung,54 µM
same,TGI,NCI-H522 lung,> 100 µM
same,GI50,NCI/ADR-RES ovarian,> 100 µM
same,TGI,NCI/ADR-RES ovarian,> 100 µM
same,GI50,OVCAR-3 ovarian,28.4 µM
same,TGI,OVCAR-3 ovarian,> 100 µM
same,GI50,OVCAR-4 ovarian,18.8 µM
same,TGI,OVCAR-4 ovarian,82.6 µM
same,GI50,OVCAR-5 ovarian,39.4 µM
same,TGI,OVCAR-5 ovarian,> 100 µM
same,GI50,OVCAR-8 ovarian,33.5 µM
same,TGI,OVCAR-8 ovarian,> 100 µM
same,GI50,PC-3 prostate,26.2 µM
same,TGI,PC-3 prostate,99.2 µM
same,GI50,RPMI-8226 leukemia,15.3 µM
same,TGI,RPMI-8226 leukemia,45.8 µM
same,GI50,RXF 393 renal,29.4 µM
same,TGI,RXF 393 renal,> 100 µM
same,GI50,SF-268 CNS,26.9 µM
same,TGI,SF-268 CNS,> 100 µM
same,GI50,SF-295 CNS,24.8 µM
same,TGI,SF-295 CNS,74.8 µM
same,GI50,SF-539 CNS,91.7 µM
same,TGI,SF-539 CNS,> 100 µM
same,GI50,SK-MEL-28 melanoma,47.8 µM
same,TGI,SK-MEL-28 melanoma,> 100 µM
same,GI50,SK-MEL-5 melanoma,33.5 µM
same,TGI,SK-MEL-5 melanoma,95.7 µM
same,GI50,SK-OV-3 ovarian,40.9 µM
same,TGI,SK-OV-3 ovarian,> 100 µM
same,GI50,SN12C renal,40.4 µM
same,TGI,SN12C renal,> 100 µM
same,GI50,SNB-19 CNS,55.7 µM
same,TGI,SNB-19 CNS,> 100 µM
same,GI50,SNB-75 CNS,42.4 µM
same,TGI,SNB-75 CNS,> 100 µM
same,GI50,SW-620 colon,> 100 µM
same,TGI,SW-620 colon,> 100 µM
same,GI50,T-47D breast,29.2 µM
same,TGI,T-47D breast,> 100 µM
same,GI50,TK-10 renal,35.5 µM
same,TGI,TK-10 renal,> 100 µM
same,GI50,UACC-257 melanoma,61.3 µM
same,TGI,UACC-257 melanoma,> 100 µM
same,GI50,UACC-62 melanoma,19.2 µM
same,TGI,UACC-62 melanoma,63.7 µM
same,GI50,UO-31 renal,56.8 µM
same,TGI,UO-31 renal,> 100 µM
